Test system: LDLR protein levels in HepG2 cells
Assay: Western blot analysis of relative LDLR protein levels in HepG2 cells after treatment
Assay type: cell-based, human
Settings: HepG2 cells incubated overnight with compound, 0.2 μM to 20 μM
Procedure: Cell culture, treatments and cell viability assay. For phenotypic screening of PCSK9 modulators and/or LDLR small molecule inducers, human HepG2 cells were incubated overnight in conditioned media containing chemical compounds resuspended in DMSO at concentration ranging from 0.2 μM to 20 μM. […] Following incubation, media have been replaced and cells incubated for 4 h with 100 μL of phenol red-free DMEM containing 0.5 mg/mL of MTT (3-[4,5-dimethylthiazol-2-yl]-2,5-diphenyltetrazolium bromide; thiazolyl blue; catalog no. M5655, Sigma-Aldrich), following manufacturer's instructions.
Western Blot Analysis, Immunocytochemistry and LDLR Activity Assay. Following incubation, cells were washed three times in phosphate-buffered saline (PBS) and lysed in radioimmune precipitation assay buffer (50 mM Tris/HCl, pH 8.0, 1% (v/v) Nonidet P-40, 0.5% sodium deoxycholate, 150 mM NaCl, and 0.1% (v/v) SDS) supplemented with a complete protease inhibitor mixture (catalog no. 11 697 498 001, Roche Applied Science). Proteins were separated by SDS polyacrylamide gel electrophoresis, blotted on nitrocellulose membranes (Bio-Rad), blocked incubated with indicated antibodies as described (Poirier S, et al., Cell Rep, 2015). For immunocytochemistry analysis, cells were permeabilized or not with 0.1% Triton X-100/PBS for 10 min, and incubated with 150 mM glycine, blocked and incubated with indicated primary and secondary antibodies. Immunofluorescence analyses were performed with an Olympus FluoView FV10i confocal microscope (Poirier et al., Cell Rep. 2015; 13(10):2064-2071). For LDLR activity assay, HepG2 cells were incubated overnight without or with a given compound in the presence of 5 μg/ml fluorescent labelled DiI-LDL (Alfa Aesar, Cat. #J65330) and co-stained for LDLR if applicable, as described (Poirier et al., J Biol Chem. 2009; 284(42):28856-28864). Immunofluorescence analyses were performed with an Olympus FluoView FV10i confocal microscope.

Row | Compound | LDLR Fold (relative LDLR protein levels) [Fold]
1 | 3-(1,3-benzodioxol-5-yl)-1-[(1S)-1-(6-methylpyridin-2-yl)-1,3,4,9-tetrahydropyrido[3,4-b]indol-2-yl]propan-1-one [Compound 23] | 1.2
2 | CCOc1cccc([C@@H]2CC(c3ccc(C)cc3)=NC3(CCN(C(C)=O)CC3)N2)c1O (stereo in doubt) [Compound 3, 1-[4-(3-ethoxy-2-hydroxyphenyl)-2-(4-methylphenyl)-1,5,9-triazaspiro[5.5]undec-1-en-9-yl]ethan-1-one] | 1.8 ± 0.6
3 | CN1C(=O)c2cc(C(=O)N3CCN(c4ccccc4)CC3)nn2C[C@]1(C)C(=O)NC1CCCCCC1 (stereo in doubt) [Compound 5, N-cycloheptyl-5,6-dimethyl-4-oxo-2-(4-phenylpiperazine-1-carbonyl)-4H,5H,6H,7H-pyrazolo[1,5-a]pyrazine-6-carboxamide] | 0.8 ± 0.0
4 | O=C(NCCc1c[nH]c2ccccc12)c1ccc2c(c1)NC(=O)[C@H]1CCCCN21 (stereo in doubt) [Compound 8, N-[2-(1H-indol-3-yl)ethyl]-6-oxo-5,6a,7,8,9,10-hexahydropyrido[1,2-a]quinoxaline-3-carboxamide] | 1.0 ± 0.2
5 | COc1ccc2cc([C@]3(C)NC(=O)N(CC(=O)N4CCC[C@@H]5CCCC[C@@H]54)C3=O)ccc2c1 (stereo in doubt) [Compound 15, 3-[2-(decahydroquinolin-1-yl)-2-oxoethyl]-5-(6-methoxynaphthalen-2-yl)-5-methylimidazolidine-2,4-dione] | 1.1 ± 0.6
6 | C[C@@]1(c2ccc3ccccc3c2)NC(=O)N(CC(=O)N2CCC[C@@H]3CCCC[C@@H]32)C1=O (stereo in doubt) [Compound 17, 3-[2-(decahydroquinolin-1-yl)-2-oxoethyl]-5-methyl-5-(naphthalen-2-yl)imidazolidine-2,4-dione] | 1.2 ± 0.6
7 | CC[C@@H]1CCCCN1C(=O)CN1C(=O)N[C@@](C)(c2ccc3ccccc3c2)C1=O (stereo in doubt) [Compound 18, 3-[2-(2-ethylpiperidin-1-yl)-2-oxoethyl]-5-methyl-5-(naphthalen-2-yl)imidazolidine-2,4-dione] | 1.4 ± 0.7
8 | C[C@@]1(c2ccc3ccccc3c2)NC(=O)N(CC(=O)N2CCC(Cc3ccccc3)CC2)C1=O (stereo in doubt) [Compound 19, 3-[2-(4-benzylpiperidin-1-yl)-2-oxoethyl]-5-methyl-5-(naphthalen-2-yl)imidazolidine-2,4-dione] | 1.0 ± 0.5
9 | Cc1cccc([C@@H]2c3[nH]c4ccccc4c3CCN2C(=O)CCN2CCCCC2=O)n1 (stereo in doubt) [Compound 20, 1-{3-[1-(6-methylpyridin-2-yl)-1H,2H,3H,4H,9H-pyrido[3,4-b]indol-2-yl]-3-oxopropyl}piperidin-2-one] | 1.4
10 | CC(C)(O)C#Cc1cccc(C(=O)N2CCc3c([nH]c4ccccc34)[C@H]2c2ccccn2)c1 (stereo in doubt) [Compound 21, 2-methyl-4-{3-[1-(pyridin-2-yl)-1H,2H,3H,4H,9H-pyrido[3,4-b]indole-2-carbonyl]phenyl}but-3-yn-2-ol] | 1.0
11 | Cc1ccc2c(CC(=O)N3CCc4c([nH]c5ccccc45)[C@H]3c3ccccn3)cc(=O)oc2c1 (stereo in doubt) [Compound 22, 7-methyl-4-{2-oxo-2-[1-(pyridin-2-yl)-1H,2H,3H,4H,9H-pyrido[3,4-b]indol-2-yl]ethyl}-2H-chromen-2-one] | 1.4
12 | Cc1cccc([C@H]2c3[nH]c4ccccc4c3CCN2C(=O)C(=O)CCc2ccccc2)n1 (stereo in doubt) [Compound 24, 1-[1-(6-methylpyridin-2-yl)-1H,2H,3H,4H,9H-pyrido[3,4-b]indol-2-yl]-4-phenylbutane-1,2-dione] | 1.6
13 | Cc1cccc([C@H]2c3[nH]c4ccccc4c3CCN2C(=O)CCc2ccccc2)n1 (stereo in doubt) [Compound 27, 1-[1-(6-methylpyridin-2-yl)-1H,2H,3H,4H,9H-pyrido[3,4-b]indol-2-yl]-3-phenylpropan-1-one] | 1.0
14 | CC1=NC2=NC(NCCc3c[nH]c4ccccc34)=N[C@H](c3ccccc3)N2C(O)=C1 (stereo in doubt) [Compound 29, 2-{[2-(1H-indol-3-yl)ethyl]amino}-8-methyl-4-phenyl-4H-pyrimido[1,2-a][1,3,5]triazin-6-ol] | 0.9
15 | CC1=NC2=NC(N3CCC(Cc4ccccc4)CC3)=N[C@H](c3ccccc3)N2C(O)=C1 (stereo in doubt) [Compound 30, 2-(4-benzylpiperidin-1-yl)-8-methyl-4-phenyl-4H-pyrimido[1,2-a][1,3,5]triazin-6-ol] | 0.6
16 | CC1=NC2=NC(N3CCN(c4ccccc4)CC3)=N[C@H](c3ccc(Cl)cc3)N2C(O)=C1 (stereo in doubt) [Compound 31, 4-(4-chlorophenyl)-8-methyl-2-(4-phenylpiperazin-1-yl)-4H-pyrimido[1,2-a][1,3,5]triazin-6-ol] | 1.1
17 | CC1=NC2=NC(N3CCC(Cc4ccccc4)CC3)=N[C@H](c3cccnc3)N2C(O)=C1 (stereo in doubt) [Compound 34, 2-(4-benzylpiperidin-1-yl)-8-methyl-4-(pyridin-3-yl)-4H-pyrimido[1,2-a][1,3,5]triazin-6-ol] | 1.0
18 | O=C([C@H]1CCCO1)N1CCN(c2nnc(-c3ccccc3)c3ccccc23)CC1 (stereo in doubt) [Compound 42, 1-[4-(oxolane-2-carbonyl)piperazin-1-yl]-4-phenylphthalazine] | 0.6
19 | Cc1ccc2nccc(C(=O)N3CCC[C@H](Cn4cc(C(C)(C)N)nn4)C3)c2c1 (stereo in doubt) [Compound 44, 2-[1-({1-[(6-methylquinolin-4-yl)carbonyl]piperidin-3-yl}methyl)-1H-1,2,3-triazol-4-yl]propan-2-amine] | 1.2
20 | O=C(Nc1ccccc1)[C@H]1CCCN(C(=O)c2cc(C3CC3)nc3ccccc23)C1 (stereo in doubt) [Compound 45, 1-(2-cyclopropylquinoline-4-carbonyl)-N-phenylpiperidine-3-carboxamide] | 1.2
21 | O=C(Nc1ccccc1)[C@H]1CCCN(C(=O)c2cc(-c3ccncc3)nc3ccccc23)C1 (stereo in doubt) [Compound 46, N-phenyl-1-[2-(pyridin-4-yl)quinoline-4-carbonyl]piperidine-3-carboxamide] | 1.1
22 | COc1cc(C(=O)N2CCC[C@H](CNS(=O)(=O)c3cccs3)C2)c2ccccc2n1 (stereo in doubt) [Compound 48, N-{[1-(2-methoxyquinoline-4-carbonyl)piperidin-3-yl]methyl}thiophene-2-sulfonamide] | 1.0

From US12419888B2, “Methods of treating elevated plasma cholesterol” (INSTITUT DE CARDIOLOGIE DE MONTREAL, priority 2020, dated 2025)
